Test [1] deals with T1, human dopamine D1 receptor (Homo sapiens, UniProt P21728).
T1 construct: A 1.4 Kb Hind III to Xho I fragment was subcloned into the vector pMMLV; expressed in transfected cells; host or cells: CHO cells, clone CHO-D1M#9 (plasmid pHD1MMLV), membranes
Put plainly: [3H]-SCH-23390 binding to cloned human dopamine D1 receptors (CHO cell membranes).

In a further test the target is T2, D1 receptor (Homo sapiens, UniProt P21728).
T2 construct: expressed in transfected cells; host or cells: D1 transfected CHO cell line
T2 sequence (P21728 whole entry): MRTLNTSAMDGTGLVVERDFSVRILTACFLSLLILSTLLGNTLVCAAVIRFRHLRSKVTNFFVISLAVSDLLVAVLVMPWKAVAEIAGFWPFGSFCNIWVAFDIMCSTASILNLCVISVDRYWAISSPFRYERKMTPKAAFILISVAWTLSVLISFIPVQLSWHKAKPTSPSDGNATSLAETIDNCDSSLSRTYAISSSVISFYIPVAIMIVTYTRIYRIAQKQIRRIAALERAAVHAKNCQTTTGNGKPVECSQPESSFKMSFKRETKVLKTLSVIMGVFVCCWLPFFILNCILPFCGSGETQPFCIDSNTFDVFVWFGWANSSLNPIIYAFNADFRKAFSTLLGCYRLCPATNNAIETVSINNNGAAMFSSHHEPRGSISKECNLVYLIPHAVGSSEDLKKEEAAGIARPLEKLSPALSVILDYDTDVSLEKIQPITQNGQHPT
Put plainly: D1 Activation Adenylyl Cyclase Assay (cAMP FlashPlate, D1 transfected CHO cell line). The class given is cell-based. The gist of the method:
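D1-transfected CHO cells (50,000/well) were exposed to compound 1/10 serial dilutions for 8 min at RT; cAMP measured by competitive 125I-cAMP FlashPlate against a standard curve. Response normalised between basal and saturating D1 agonist; EC50 at half-maximal stimulation, plateau reported as % maximal dopamine stimulation.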

The target in test [2] is human dopamine D2Long (D2L) receptors (Homo sapiens, UniProt P14416).
human dopamine D2Long (D2L) receptors, sequence (P14416 whole entry): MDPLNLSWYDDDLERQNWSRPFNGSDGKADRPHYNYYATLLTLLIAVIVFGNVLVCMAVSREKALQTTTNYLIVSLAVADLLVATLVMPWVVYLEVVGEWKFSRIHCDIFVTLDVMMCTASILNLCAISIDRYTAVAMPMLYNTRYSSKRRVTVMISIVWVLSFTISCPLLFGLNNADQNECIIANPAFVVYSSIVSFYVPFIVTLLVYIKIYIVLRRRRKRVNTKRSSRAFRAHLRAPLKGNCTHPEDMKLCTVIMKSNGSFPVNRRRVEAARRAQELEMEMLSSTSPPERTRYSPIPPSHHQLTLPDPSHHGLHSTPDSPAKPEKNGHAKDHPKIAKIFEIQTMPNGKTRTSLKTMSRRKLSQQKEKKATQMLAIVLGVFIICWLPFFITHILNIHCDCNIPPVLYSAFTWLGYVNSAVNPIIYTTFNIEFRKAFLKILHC
The mark [3] stands for this setting: competitive binding, [3H]-SCH-23390, cloned human D1 in CHO membranes, read-out: D1 affinity Ki.
Setting [4] is: agonist activity at the D1 receptor, adenylate cyclase assay, D1 transfected CHO cell line, read-out: D1 EC50.

Data on 24 compounds can be found in patent publication US7919508B2, “3-piperidinylisochroman-5-ols as dopamine agonists” (Aventis Pharmaceuticals Inc., priority 2004, dated 2011).

The structures appear in SMILES notation. Where a name gives a salt, the structure may show the parent alone. Read-outs that look alike come from different tables or passages of the source.

T1 sequence (P21728 whole entry, the tested form may be a part): as the sequence (P21728 whole entry) above

Broadly, the Ki is a measure of affinity in units of concentration, obtained from inhibition or displacement. A word on the EC50: it is the concentration giving half of the maximal effect. As to `CNC[C@@H]1O[C@H](C2CCN(Cc3ccc(-c4ccccc4)cc3)CC2)Cc2c1ccc(C)c2O` [Example 98, (1R,3S)-3-(1-Biphenyl-4-ylmethyl-piperidin-4-yl)-6-methyl-1-methylaminomethyl-isochroman-5-ol dihydrochloride], the values for the Ki in test [1] (setting [3]) and in test [2] were 60.3 nM and 239 nM, respectively. Moreover, the EC50 at D1 receptor (setting [4]) is 15 nM.

On to `Cc1ccc2c(c1O)C[C@@H](C1CCN(Cc3cnc4ccccc4c3)CC1)O[C@H]2CN` [Example 56, (1R,3S)-1-Aminomethyl-6-methyl-3-(1-quinolin-3-ylmethyl-piperidin-4-yl)-isochroman-5-ol dihydrochloride], for which the Ki in test [1] (setting [3]) was 30.5 nM; in test [2] it was ≥ 10000 nM. Moreover, the EC50 at D1 receptor (setting [4]) came out at 12 nM.

With `CNC[C@@H]1O[C@H](C2CCN(CCc3ccccc3)CC2)Cc2c1ccc(C)c2O` [Example 94, (1R,3S)-6-Methyl-1-methylaminomethyl-3-(1-phenethyl-piperidin-4-yl)-isochroman-5-ol dihydrochloride], the Ki in test [1] (setting [3]) is 113 nM; in test [2] it was 285 nM. In addition, at D1 receptor (setting [4]), the EC50 was determined as 35 nM.

Turning to `Cc1ccc2c(c1O)C[C@@H](C1CCN(Cc3ccc(Cl)c(Cl)c3)CC1)O[C@H]2CN` [Example 60, (1R,3S)-1-Aminomethyl-3-[1-(3,4-dichloro-benzyl)-piperidin-4-yl]-6-methyl-isochroman-5-ol dihydrochloride], the Ki worked out at 11.8 nM in test [1] (setting [3]) and 364 nM in test [2]. The EC50 on D1 receptor (setting [4]) turned out to be 160 nM.

On to `Cc1ccc2c(c1O)C[C@@H](C1CCN(Cc3ccccc3F)CC1)O[C@H]2CN` [Example 36, (1R,3S)-1-Aminomethyl-3-[1-(2-fluoro-benzyl)-piperidin-4-yl]-6-methyl-isochroman-5-ol dihydrobromide], for which the Ki in test [1] (setting [3]) came out at 42.8 nM; in test [2] it was 749 nM. Besides, the concentration for a half-maximal effect (EC50) on D1 receptor (setting [4]) was determined as 62 nM.

As for `Cc1ccc2c(c1O)C[C@@H](C1CCN(CCC(C)NC(=O)c3ccc(F)cc3)CC1)O[C@H]2CN` (stereo partly drawn) [Example 22, N-{3-[4-((1R,3S)-1-Aminomethyl-5-hydroxy-6-methyl-isochroman-3-yl)-piperidin-1-yl]-1-methyl-propyl}-4-fluoro-benzamide dihydrochloride], the figures for the inhibition constant Ki in test [1] (setting [3]) and in test [2] were 114 nM and 564 nM, respectively. For the same compound, on D1 receptor (setting [4]), the EC50 was determined as 24 nM.

`Cc1ccc2c(c1O)C[C@@H](C1CCN(CCc3cccc(Cl)c3)CC1)O[C@H]2CN` [Example 107, (1R,3S)-1-Aminomethyl-3-{1-[2-(3-chloro-phenyl)-ethyl]-piperidin-4-yl}-6-methyl-isochroman-5-ol dihydrobromide]: the inhibition constant Ki in test [1] (setting [3]) is 926 nM; in test [2], ≥ 10000 nM. Also, the EC50 on D1 receptor (setting [4]) was determined as 140 nM.

With `Cc1cccc(CN2CCC([C@@H]3Cc4c(ccc(C)c4O)[C@H](CN)O3)CC2)c1` [Example 65, (1R,3S)-1-Aminomethyl-6-methyl-3-[1-(3-methyl-benzyl)-piperidin-4-yl]-isochroman-5-ol dihydrochloride], the inhibitory constant (Ki) was 34 nM in test [1] (setting [3]) and 288 nM in test [2]. For the same compound, the EC50 on D1 receptor (setting [4]) came to 11 nM.

Regarding `Cc1ccc2c(c1O)C[C@@H](C1CCN(CCO)CC1)O[C@H]2CN` [Example 43, (1R,3S)-1-Aminomethyl-3-[1-(2-hydroxy-ethyl)-piperidin-4-yl]-6-methyl-isochroman-5-ol dihydrochloride], the Ki is 86.1 nM in test [1] (setting [3]) and ≥ 10000 nM in test [2]. Besides, the EC50 on D1 receptor (setting [4]) is 110 nM.

Regarding `CNC[C@@H]1O[C@H](C2CCN(Cc3ccc(OC)cc3)CC2)Cc2c1ccc(C)c2O` [Example 99, (1R,3S)-3-[1-(4-Methoxy-benzyl)-piperidin-4-yl]-6-methyl-1-methylaminomethyl-isochroman-5-ol dihydrochloride], the results for the Ki in test [1] (setting [3]) and in test [2] were 53.1 nM and 307 nM, respectively. Moreover, the EC50 at D1 receptor (setting [4]) was 22 nM.

With `Cc1ccc2c(c1O)C[C@@H](C1CCN(Cc3cn(C)c4ccccc34)CC1)O[C@H]2CN` [Example 90, (1R,3S)-1-Aminomethyl-6-methyl-3-[1-(1-methyl-1H-indol-3-ylmethyl)-piperidin-4-yl]-isochroman-5-ol trihydrochloride], the Ki in test [1] (setting [3]) is 42.3 nM; in test [2] it was 2.4 nM. Moreover, the EC50 on D1 receptor (setting [4]) is 9 nM.

Turning to `Cc1ccc2c(c1O)C[C@@H](C1CCN(C(=O)Oc3ccccc3C(F)(F)F)CC1)O[C@H]2CN` [Example 119, 4-((1R,3S)-1-Aminomethyl-5-hydroxy-6-methyl-isochroman-3-yl)-piperidine-1-carboxylic acid 2-trifluoromethyl-phenyl ester hydrochloride], the figures for the Ki in test [1] and in test [2] were 54 nM and 649 nM, respectively. Further, the EC50 at D1 receptor stood at 3.1 nM.

In the case of `Cc1ccc2c(c1O)C[C@@H](C1CCN(CC3CCCCC3)CC1)O[C@H]2CN` [Example 34, (1R,3S)-1-Aminomethyl-3-(1-cyclohexylmethyl-piperidin-4-yl)-6-methyl-isochroman-5-ol dihydrochloride], the Ki is 47 nM in test [1] (setting [3]) and ≥ 10000 nM in test [2]. In addition, the concentration giving a half-maximal response (EC50) at D1 receptor (setting [4]) was 66 nM.

Take `CNC[C@@H]1O[C@H](C2CCN(Cc3ccc(F)c(F)c3)CC2)Cc2c1ccc(C)c2O` [Example 100, (1R,3S)-3-[1-(3,4-Difluoro-benzyl)-piperidin-4-yl]-6-methyl-1-methylaminomethyl-isochroman-5-ol dihydrochloride]: the Ki in test [1] (setting [3]) is 43.1 nM; in test [2] it was ≥ 100000 nM. For the same compound, the EC50 at D1 receptor (setting [4]) was found to be 60 nM.

As to `Cc1ccc2c(c1O)C[C@@H](C1CCN(S(=O)(=O)CC(F)(F)F)CC1)O[C@H]2CN` [Example 157, (1R,3S)-1-Aminomethyl-6-methyl-3-[1-(2,2,2-trifluoro-ethanesulfonyl)-piperidin-4-yl]-isochroman-5-ol hydrochloride], the inhibition constant (Ki) in test [1] (setting [3]) is 2.07 nM; in test [2], 434 nM. For the same compound, the EC50 on D1 receptor (setting [4]) is 460 nM.

As to `Cc1ccc2c(c1O)C[C@@H](C1CCN(Cc3cc4ccccc4o3)CC1)O[C@H]2CN` [Example 85, (1R,3S)-1-Aminomethyl-3-(1-benzofuran-2-ylmethyl-piperidin-4-yl)-6-methyl-isochroman-5-ol dihydrochloride], the Ki was 25.6 nM in test [1] (setting [3]) and 389 nM in test [2]. The EC50 at D1 receptor (setting [4]) turned out to be 16 nM.

As to `COc1ccc(S(=O)(=O)N2CCC([C@@H]3Cc4c(ccc(C)c4O)[C@H](CN)O3)CC2)cc1OC` [Example 144, (1R,3S)-1-Aminomethyl-3-[1-(3,4-dimethoxy-benzenesulfonyl)-piperidin-4-yl]-6-methyl-isochroman-5-ol hydrochloride], the inhibition constant Ki in test [1] (setting [3]) turned out to be 91 nM; in test [2] it was 602 nM. Moreover, the EC50 on D1 receptor (setting [4]) was 3.6 nM.

With `Cc1ccc2c(c1O)C[C@@H](C1CCN(Cc3cccc(Cl)c3)CC1)O[C@H]2CN` [Example 37, (1R,3S)-1-Aminomethyl-3-[1-(3-chloro-benzyl)-piperidin-4-yl]-6-methyl-isochroman-5-ol dihydrobromide], the Ki in test [1] (setting [3]) was determined as 17.9 nM; in test [2], 356 nM. Also, the concentration for a half-maximal effect (EC50) at D1 receptor (setting [4]) was 110 nM.

Turning to `Cc1ccc2c(c1O)C[C@@H](C1CCN(S(=O)(=O)Cc3ccccc3[N+](=O)[O-])CC1)O[C@H]2CN` [Example 158, (1R,3S)-1-Aminomethyl-6-methyl-3-[1-(2-nitro-phenylmethanesulfonyl)-piperidin-4-yl]-isochroman-5-ol hydrochloride], the Ki was 95.2 nM in test [1] (setting [3]) and ≥ 100000 nM in test [2]. In addition, the EC50 on D1 receptor (setting [4]) came out at 11 nM.

With `Cc1ccc2c(c1O)C[C@@H](C1CCN(Cc3cc4ccccc4n3C)CC1)O[C@H]2CN` [Example 88, (1R,3S)-1-Aminomethyl-6-methyl-3-[1-(1-methyl-1H-indol-2-ylmethyl)-piperidin-4-yl]-isochroman-5-ol dihydrochloride], the Ki in test [1] (setting [3]) amounted to 66.5 nM; in test [2] it was 109 nM. In addition, the EC50 on D1 receptor (setting [4]) was 29 nM.

Take `Cc1ccc2c(c1O)C[C@@H](C1CCN(Cc3c[nH]c4ccccc34)CC1)O[C@H]2CN` [Example 89, (1R,3S)-1-Aminomethyl-3-[1-(1H-indol-3-ylmethyl)-piperidin-4-yl]-6-methyl-isochroman-5-ol dihydrochloride]: the inhibition constant Ki worked out at 18.9 nM in test [1] (setting [3]) and 199 nM in test [2]. Further, the EC50 at D1 receptor (setting [4]) came to 8 nM.

With `Cc1ccc2c(c1O)C[C@@H](C1CCN(CCC(C)NC(=O)c3cccs3)CC1)O[C@H]2CN` (stereo partly drawn) [Example 25, Thiophene-2-carboxylic acid {3-[4-((1R,3S)-1-aminomethyl-5-hydroxy-6-methyl-isochroman-3-yl)-piperidin-1-yl]-1-methyl-propyl}-amide dihydrochloride], the Ki in test [1] (setting [3]) came out at 56.1 nM; in test [2] it was 218 nM. In addition, the EC50 at D1 receptor (setting [4]) is 54 nM.

As to `Cc1ccc2c(c1O)C[C@@H](C1CCN(Cc3sc4ccccc4c3C)CC1)O[C@H]2CN` [Example 86, (1R,3S)-1-Aminomethyl-6-methyl-3-[1-(3-methyl-benzo[b]thiophen-2-ylmethyl)-piperidin-4-yl]-isochroman-5-ol dihydrochloride], the figures for the inhibition constant (Ki) in test [1] (setting [3]) and in test [2] were 39.9 nM and 97.6 nM, respectively. Moreover, the EC50 on D1 receptor (setting [4]) is 77 nM.

`Cc1ccc2c(c1O)C[C@@H](C1CCN(Cc3cc(C(F)(F)F)ccc3C(F)(F)F)CC1)O[C@H]2CN` [Example 76, (1R,3S)-1-Aminomethyl-3-[1-(2,5-bis-trifluoromethyl-benzyl)-piperidin-4-yl]-6-methyl-isochroman-5-ol dihydrochloride]: the figures for the Ki in test [1] (setting [3]) and in test [2] were 92 nM and 41 nM, respectively. The EC50 on D1 receptor (setting [4]) turned out to be 580 nM.
